{
  "source": "patent US7119205B2",
  "about": "“Thienopyridones as AMPK activators for the treatment of diabetes and obesity” (Abbott Laboratories, priority 2003, dated 2006)",
  "origin": "cited, not measured here",
  "tested_on": "ob/ob and db/db mice",
  "conditions": "8 day administration",
  "data": [
    {"smiles": "NC(=O)c1ncn([C@@H]2O[C@H](CO)[C@@H](O)[C@H]2O)c1N", "note": "[AICAR]", "values": [
      {"measurement": "reduction of blood glucose", "value": 35, "unit": "%"}
    ]}
  ]
}
